Source: US20200188471A1 (GUILIN EIGHT PLUS ONE PHARMACEUTICAL CO., LTD., priority 2017, published 2020)
No end group written: not given here.

Key:
CIA mice [1] = test: Collagen-specific antibody and inflammatory factors in serum of CIA mice (ELISA, multi-factor kit); type: in vivo, DBA/1 mice; conditions: 1600 ug/kg i.p., vs model group
Procedure: (§1) After 3 days of adaptation, DBA/1 mice were weighed and began to model. Six were randomly selected as the normal group, and the rest were the experimental group.
(§2) Day 0: Take bovine type IT collagen (4 mg/ml) and vortex and mix with an equal volume of CFA (4 mg/ml). It is better to not disperse on the water, and 100 ul/head is injected intradermally into the tail of the mouse.
(§3) Day 21: Take bovine type II collagen (4 mg/ml) and vortex mixed with an equal volume of IFA (4 mg/ml) until the droplets are not dispersed on the water. The mice are injected intradermally with 100 ul/head. On the 30th day, the model was successfully established. […] The drug was administered by injection once a day for 18 days.
(§4) One-Way ANOVA statistical analysis of the data using Graphpad Prism 5 was considered statistically significant at P<0.05. “*” indicates P<0.05, “**” indicates P<0.01, and “***” indicates P<0.001.
The ELISA kit and multi-factor kit were used to determine the collagen-specific antibody Ig G and pro-inflammatory factors IL-17, TNF-α, IL-6, IFN-γ and anti-inflammatory factor IL-10 in the serum of each group of mice. Compared with the normal control group, the collagen-specific antibody Ig G and the pro-inflammatory factors IL-17, TNF-α, IL-6, IFN-γ in the serum of the model group mice.

TNFR1 = target: T1, TNFR1 (Homo sapiens, UniProt P19438); conditions: read-out: binding capacity with TNFR1 (KD); SPR; from Hailong Jiang 2015 master dissertation of the inventors' group; cited from earlier work
T1 sequence (P19438 30-455): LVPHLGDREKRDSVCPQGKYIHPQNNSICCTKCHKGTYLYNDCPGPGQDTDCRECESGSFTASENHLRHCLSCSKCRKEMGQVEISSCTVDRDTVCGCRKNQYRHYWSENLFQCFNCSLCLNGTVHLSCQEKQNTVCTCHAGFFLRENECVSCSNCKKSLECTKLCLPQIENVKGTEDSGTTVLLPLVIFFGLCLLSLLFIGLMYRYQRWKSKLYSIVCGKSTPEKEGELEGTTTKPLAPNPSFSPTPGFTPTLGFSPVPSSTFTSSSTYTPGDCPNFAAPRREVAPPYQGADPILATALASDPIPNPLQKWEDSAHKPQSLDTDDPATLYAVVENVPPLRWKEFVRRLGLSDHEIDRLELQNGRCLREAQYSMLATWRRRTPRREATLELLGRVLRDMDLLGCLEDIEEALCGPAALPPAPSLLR

TNF-α [2] = target: T2, TNF-α (Homo sapiens, UniProt P01375); test: MST interaction with TNF-α; type: binding; conditions: fluorescently labeled TNF-α
[3] = target: T3, interaction of TNFR1 and TNF-α (Homo sapiens, UniProt P19438); test: MST competitive inhibition between TNF-α and TNFR1; type: binding
T3 sequence (P19438 30-211 limits assumed): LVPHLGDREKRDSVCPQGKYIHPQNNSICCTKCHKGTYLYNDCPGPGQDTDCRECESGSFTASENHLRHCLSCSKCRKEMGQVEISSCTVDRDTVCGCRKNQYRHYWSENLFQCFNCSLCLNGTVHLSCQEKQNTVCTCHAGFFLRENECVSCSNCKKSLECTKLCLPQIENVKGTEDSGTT
Source text: Calculate the KD value by software. The changes of TNF-α saturation concentration, response amplitude and KD value before and after Hydrostatin-SN10 were compared.

CIA mice [4] = test: Micro-CT detection of bone destruction in CIA mice; type: in vivo, DBA/1 mice
CIA mice [5] = test: Arthritis index in type II bovine collagen-induced arthritis (CIA) mice; type: in vivo, DBA/1 mice; conditions: i.p. 1600 ug/kg once a day for 18 days, vs model group
Procedure: as §1, §2, §3, §4

TNF-α [6] = target: T2, TNF-α; test: BIAcore (SPR) interaction with TNF-α; type: binding
TNFR2 = target: T4, TNFR2 (Homo sapiens, UniProt P20333); test: MST interaction with TNFR2; type: binding
T4 sequence (P20333 23-461): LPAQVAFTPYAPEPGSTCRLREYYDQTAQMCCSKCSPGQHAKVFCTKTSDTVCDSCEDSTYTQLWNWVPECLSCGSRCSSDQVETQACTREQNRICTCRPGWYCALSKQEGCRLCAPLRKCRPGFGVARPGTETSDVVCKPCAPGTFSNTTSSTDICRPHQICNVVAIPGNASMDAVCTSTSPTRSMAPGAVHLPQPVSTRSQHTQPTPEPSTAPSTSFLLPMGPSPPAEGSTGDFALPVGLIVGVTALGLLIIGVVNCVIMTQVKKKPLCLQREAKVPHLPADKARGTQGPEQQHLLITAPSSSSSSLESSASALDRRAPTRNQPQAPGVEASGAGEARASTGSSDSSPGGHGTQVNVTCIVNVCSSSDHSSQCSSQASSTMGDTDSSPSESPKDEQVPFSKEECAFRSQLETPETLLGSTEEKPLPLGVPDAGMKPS

CIA mice [7] = test: Treg (Foxp3) and Th1, Th2, Th17 expression in T cells/splenocytes of CIA mice; type: in vivo, DBA/1 mice; conditions: vs model group
Procedure: as §1, §2, §3, §4
Studies have shown that Th17 cells secrete high levels of IL-17, which stimulates the secretion of matrix metalloproteinase-1, IL-1β by FLS. TNF-α and other co-inducing NF-κB receptor activator ligands are involved in the bone destruction of RA and inflammatory damage in tissues. The effect was observed by measuring the expression of helper T cells in splenocytes.

CIA mice [8] = test: Joint histology of CIA mice (HE staining, TNF-α immunohistochemistry, TRAP staining); type: in vivo, DBA/1 mice
[9] = target: T5, interaction of TNFR1 with TNF-α (Homo sapiens, UniProt P19438); test: BIAcore (SPR) competitive inhibition between TNF-α and TNFR1; type: binding
T5 sequence (P19438 30-211 limits assumed): T3 sequence (P19438 30-211 limits assumed)

[10] = trabecular bone, Micro-CT, vs model group

## H-DEQHLETELH [Hydrostatin-SN10]
CIA mice [1]
  content of IFN-γ in serum: significantly reduced
  content of IL-6 in serum: significantly reduced
  content of IL-17 in serum: significantly reduced
  content of TNF-α in serum: significantly reduced
  content of anti-inflammatory factor IL10 in serum: Significantly increased
  content of collagen-specific antibody Ig G in serum: significantly reduced
TNFR1
  Kd: ~2800 nM
TNF-α [2]
  binding to TNF-α: not binding
TNF-α [2]; listed as SN10
  binding to TNF-α: no binding
[3]
  competitive inhibition of the interaction of TNFR1 and TNF-α: competitively inhibit
CIA mice [4]; Micro-CT of trabecular bone, CIA mice, vs model group
  trabecular bone damage: significantly reduced bone damage
CIA mice [4]; Micro-CT, CIA mice, peptides 1600 ug/kg, infliximab 4 mg/kg i.p.
  degree of bone destruction, hind limbs: significantly reduced the degree of bone destruction
CIA mice [4]; [10]
  bone area/tissue volume (BS/TV): significantly up-regulated
  bone mineral density (BMD): significantly up-regulated
  bone surface area/bone volume (BS/BV): significant down
  bone volume/tissue volume (BV/TV): significantly up-regulated
  number of trabeculae (Th.N): significantly up-regulated
  trabecular model factor (Tb.pf): significant down
  trabecular separation (Tb.sp): significant down
  trabecular thickness (Tb.Th): significantly up-regulated
CIA mice [5]
  arthritis index: reduced
TNF-α [6]
  binding to TNF-α: does not bind
TNF-α [6]; listed as SN10
  binding to TNF-α: no binding
TNFR2; fluorescently labeled TNFR2
  binding to TNFR2: not binding
TNFR2; fluorescently labeled TNFR2, listed as SN10
  binding to TNFR2: no binding
CIA mice [7]; CIA mice
  expression level of Foxp3 in Treg cells: significantly increased
CIA mice [7]; splenocytes of CIA mice
  expression level of IFN-γ (Th1): significantly down-regulated
  expression level of IL-17 (Th17): significantly down-regulated
  expression of IL-4 (Th2): up-regulated
CIA mice [8]; HE staining of joint
  inflammatory cell infiltration: more severe inflammatory cell infiltration
  joint structure: intact joint structure
  synovial hyperplasia: severe synovial hyperplasia
CIA mice [8]; TRAP staining, vs model group
  osteoclasts in joints: reduced osteoclasts
  tartrate-resistant phosphatase (TRAP) in joints: reduced
CIA mice [8]; immunohistochemistry, vs model group
  amount of expression of TNF-α in the joints: reduced
[9]
  competitive inhibition of the interaction of TNFR1 with TNF-α: competitively inhibits
